Reference: patent US5990136A, “Isoxazoline derivatives useful as antimicrobials” (Pharmacia & Upjohn Company, priority 1997, dated 1999)
≈ marks a conversion by molar mass, not a printed value.

Legend:
S, aureus UC ® No. 9213 = conditions: Antimicrob. Agents Chemother. 1996 and ICAAC 1995 posters; cited from earlier work
[1] = system: Staphylococcus aureus UC ® No. 9213; assay: In vitro antimicrobial activity (MIC, agar dilution, Mueller Hinton agar), S. aureus UC 9213; type: cell-based; conditions: UC9213, 35° C., 18 hours, read-out: Minimum inhibitory concentration (MIC), S. a. 9213
Protocol: (§1) Antimicrobial activity was tested in vitro using the procedure described in National Committee for Clinical Laboratory Standards. Methods for dilution antimicrobial susceptibility tests for bacteria that grow aerobically are disclosed in the third edition of Approved Standard, NCCLS Document M7-A3, Villanova, Pa., 1993. Minimum inhibitory concentration (MIC) values were determined by an agar dilution method (1) in which the test medium was Mueller Hinton agar (MHA; Difco Laboratories, Detroit, Mich.) supplemented with 1% Supplement C (Difco). Serial two-fold dilutions of each compound were prepared using 1.0 ml volumes of sterile distilled water. To each 1.0 ml aliquot was added 9.0 ml of molten agar medium. The drug-supplemented agar was mixed, poured into 15×100 mm petri dishes, and allowed to solidify and dry at room temperature prior to inoculation. The test cultures were grown aerobically overnight at 35° C. on MHA; streptococcal strains were grown on Trypticase Soy Blood Agar Base EH (Difco) supplemented with 5% defibrinated sheep blood (BBL, Becton Dickinson Company, Cockeysville, Md.). Colonies were harvested with a sterile swab, and cell suspensions were prepared in Trypticase Soy Broth (TSB; Becton Dickinson Company) to equal the turbidity of a 0.5 McFarland standard. A 1:19 dilution of the suspension was made in TSB; this diluted suspension constituted the inoculum for the assay. The plates containing the drug-supplemented agar were inoculated with a 0.001 ml drop of the cell suspensions using a Steers replicator (Melrose Machine Shop, Woodlyn, Pa.), yielding approximately 10^4 -10^5 cells per spot. The plates were incubated aerobically at 35° C. for 18 hours and the MIC was read as the lowest concentration of drug that inhibited visible growth of the organism. The growth of a single colony was considered to be negative.

[2] = system: Enterococcus faecalis UC ® No. 9217; assay: In vitro antimicrobial activity (MIC, agar dilution, Mueller Hinton agar), E. faecalis UC 9217; type: cell-based; conditions: UC9217, 35° C., 18 hours, read-out: Minimum inhibitory concentration (MIC), E. f. 9217
Protocol: as §1

[3] = system: Streptococcus Pneumoniae UC ® No. 9912; assay: In vitro antimicrobial activity (MIC, agar dilution, Mueller Hinton agar), S. pneumoniae UC 9912; type: cell-based; conditions: UC9912, 35° C., 18 hours, read-out: Minimum inhibitory concentration (MIC), S. p. 9912
Protocol: as §1

For `CC(=O)NC[C@H]1CN(c2ccc(N3CCN(C(=O)CO)CC3)c(F)c2)C(=O)O1` [Example U-100592], the “potency of U-100592 versus vancomycin in this animal model” value (S, aureus UC ® No. 9213) is listed as “equipotent to vancomycin”.
Work on `CC(=O)NCC1CC(c2ccc(C3=CCN(C(C)=O)CC3)cc2)=NO1` (stereo not shown) [Example 7, N-[[4,5-Dihydro-3-[4-[1,2,3,6-tetrahydro-1-(acetyl)-4-pyridinyl]phenyl]-5-isoxazolyl]methyl]acetamide] yielded an MIC [1] of 8 µg/mL (≈ 23.4 µM), an MIC [2] of 16 µg/mL (≈ 46.9 µM) and an MIC [3] of 2 µg/mL (≈ 5.86 µM).
In the case of `CC(=O)NC[C@H]1CC(c2ccc(-c3ccncc3)cc2)=NO1` [Example 8, (R)-N-[[4,5-Dihydro-3-[4-(4-pyridinyl)phenyl]-5-isoxazolyl]methyl]acetamide], the MIC [1] is reported as 1 µg/mL (≈ 3.39 µM), the MIC [2] is reported as 2 µg/mL (≈ 6.77 µM) and the MIC [3] is reported as 0.25 µg/mL (≈ 0.846 µM).
With `COC(=O)N1CC=C(c2ccc(C3=NOC(CNC(C)=O)C3)cc2)CC1` (stereo not shown) [Example 6, Methyl 4-[4-[5-[(acetylamino)methyl]-4,5-dihydro-3-isoxazolyl]phenyl]-3,6-dihydro-1(2H)-pyridinecarboxylate] the MIC [1] was 16 µg/mL (≈ 44.8 µM), the MIC [2] was 16 µg/mL (≈ 44.8 µM) and the MIC [3] was 4 µg/mL (≈ 11.2 µM).
In the case of `COc1ccc(-c2ccc(C3=NOC(CNC(C)=O)C3)cc2)ccc1=O` (racemic) [Example 1, N-[[4,5-Dihydro-3-[4-(4-methoxy-5-oxo-1,3,6-cycloheptatrien-1-yl)phenyl]-5-isoxazolyl]methyl]acetamide], the MIC [1] is reported as 4 µg/mL (≈ 11.4 µM), the MIC [2] is reported as 4 µg/mL (≈ 11.4 µM) and the MIC [3] is reported as 1 µg/mL (≈ 2.84 µM).
With `CC(=O)NCC1CC(c2ccc(C3=CCN(C(=O)CO)CC3)cc2)=NO1` (stereo not shown) [Example 4, N-[[4,5-Dihydro-3-[4-[1,2,3,6-tetrahydro-1-(hydroxyacetyl)-4-pyridinyl]phenyl]-5-isoxazolyl]methyl]acetamide] the MIC [1] was 4 µg/mL (≈ 11.2 µM), the MIC [2] was 8 µg/mL (≈ 22.4 µM) and the MIC [3] was 2 µg/mL (≈ 5.6 µM).
Molecule `CC(=O)NC[C@H]1CC(c2ccc(C3=CCN(C(=O)CO)CC3)cc2)=NO1` [Example 5, (R)-N-[[4,5-Dihydro-3-[4-[1,2,3,6-tetrahydro-1-(hydroxyacetyl)-4-pyridinyl]phenyl]-5-isoxazolyl]methyl]acetamide] has an MIC [1] of 2 µg/mL (≈ 5.6 µM), an MIC [2] of 4 µg/mL (≈ 11.2 µM) and an MIC [3] of 0.5 µg/mL (≈ 1.4 µM).
